Values joined by “and” are separate entries in the source; they are usually repeats but may differ in a detail not shown here. Equal values may be shown once.

In one experiment the target is human FXa (Homo sapiens, UniProt P00742). Description: Measurement of activated blood coagulation factor X (FXa)-inhibiting action. It is filed as biochemical. The following applies: substrate S-2765, 30 minutes incubation, A405, read-out: FXa inhibition activity (IC50). The method, then:
Measurement of activated blood coagulation factor X (FXa)-inhibiting action
(§1) A specimen was dissolved in water or in water containing an organic solvent (DSMO, ethanol or methanol) in a proper concentration to prepare a specimen. 70 μl of the specimen stepwisely diluted with water was mixed with 90 μl of a 100 mM Tris buffer solution (pH 8.4), 20 μl of a 50 mM Tris buffer solution (pH 8.4) of 50 mU/ml human FXa, and a 2 mM substrate (Daiichikagaku. S-2765), incubated for 30 minutes, mixed with 50 μl of 50% acetic acid, and then subjected to the measurement of absorbance (A405). A blank was prepared by adding the Tris buffer solution instead of the FXa, and a control was prepared by adding water instead of the specimen. A 50% inhibition activity (IC50) was determined, and used as the index of the FXa-inhibiting action.

For a further experiment, the target named is T1, human thrombin (Homo sapiens, UniProt P00734).
T1 construct: 1U/ml human thrombin
The experiment can be described thus: Measurement of thrombin inhibition action. It counts as biochemical. The following applies: substrate S-2238, 30 minutes incubation, A405. The method, then: Measurement of thrombin inhibition action
as §1, with “70” for “A specimen was dissolved in water or in water containing an organic solvent (DSMO, ethanol or methanol) in a proper concentration to prepare a specimen. 70”, “1U/ml” for “50 mU/ml”, “thrombin,” for “FXa,”, “S-2238),” for “S-2765),”, “thrombin inhibition” for “FXa-inhibiting”

human FXa, sequence (P00742 235-488 limits assumed): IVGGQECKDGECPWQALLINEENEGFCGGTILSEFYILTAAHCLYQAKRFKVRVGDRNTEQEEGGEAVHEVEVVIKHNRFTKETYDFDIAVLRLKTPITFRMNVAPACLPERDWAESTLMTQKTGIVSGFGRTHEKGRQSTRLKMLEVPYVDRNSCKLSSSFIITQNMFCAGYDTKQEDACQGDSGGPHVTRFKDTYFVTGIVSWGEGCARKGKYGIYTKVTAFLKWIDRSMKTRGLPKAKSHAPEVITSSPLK
human FXa, sequence (P00742 41-179 partner limits assumed): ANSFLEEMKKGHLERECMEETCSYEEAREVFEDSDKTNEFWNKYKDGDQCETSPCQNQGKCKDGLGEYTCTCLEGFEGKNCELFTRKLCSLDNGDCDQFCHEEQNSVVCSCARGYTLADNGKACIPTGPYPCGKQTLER

With `COC(=O)c1cc(COc2ccc(C(C)C)cc2)cc(-c2cccc(C(=N)N)c2)c1` [Example 3], the IC50 at human FXa was in the range of 1 to 10 µM.
As to `CC(C)c1ccc(OCc2cc(C(=O)O)cc(-c3cccc(C(=N)N)c3)c2)cc1` [Example 4], the IC50 on human FXa lay in the range of 1 to 10 µM.
For `COC(=O)c1cc(COc2cccc(CN)c2)cc(-c2cccc(C(=N)N)c2)c1` [Example 5], the IC50 is 1 to 10 µM at human FXa and > 100 µM against human thrombin.
Consider `N=C(N)c1cccc(-c2cc(COc3cccc(CN)c3)cc(C(=O)O)c2)c1` [Example 6], for which the half-maximal inhibitory concentration (IC50) was 1 to 10 µM on human FXa and > 100 µM against human thrombin.
As for `COC(=O)c1cc(COc2cccc(CCN)c2)cc(-c2cccc(C(=N)N)c2)c1` [Example 9], the results for the IC50 at human FXa and against human thrombin were 1 to 10 µM and > 100 µM, respectively.
Consider `N=C(N)c1cccc(-c2cc(COc3cccc(CCN)c3)cc(C(=O)O)c2)c1` [Example 10], for which the IC50 on human FXa is 1 to 10 µM; on human thrombin, > 100 µM.
Taken in the same sequence, the figures for `COC(=O)c1cc(COc2cccnc2N)cc(-c2cccc(C(=N)N)c2)c1` [Example 11] were 10 to 100 µM and > 100 µM.
For `COC(=O)c1cc(COc2ccc(C)cc2N)cc(-c2cccc(C(=N)N)c2)c1` [Example 12], the IC50 is 1 to 10 µM on human FXa and > 100 µM against human thrombin.
Take `COC(=O)c1cc(COc2cccc(N)c2)cc(-c2cccc(C(=N)N)c2)c1` [Example 13]: on human thrombin, the IC50 was > 100 µM.
`COC(=O)c1cc(COc2cccc(CO)c2)cc(-c2cccc(C(=N)N)c2)c1` [Example 15]: the IC50 at human FXa is 1 to 10 µM and 10 to 100 µM.
`CNc1ccc(OCc2cc(C(=O)OC)cc(-c3cccc(C(=N)N)c3)c2)cc1` [Example 16] returned an IC50 at human thrombin of 10 to 100 µM.
For `COC(=O)c1cc(COc2ccc3c(c2)CNC3)cc(-c2cccc(C(=N)N)c2)c1` [Example 18], the IC50 at human FXa is 0.1 to 1 µM.
Take `COC(=O)c1cc(COc2ccc3c(c2)CN(C(C)=N)C3)cc(-c2cccc(C(=N)N)c2)c1` [Example 19]: the IC50 lay in the range of 0.1 to 1 µM on human FXa and 10 to 100 µM at human thrombin.
Take `COC(=O)c1cc(-c2cccc(C(=N)N)c2)ccc1COc1cccc(CN)c1` [Example 20]: the IC50 on human FXa was 10 to 100 µM; against human thrombin, > 100 µM.
As to `COC(=O)c1cc(COCc2ccccc2)cc(-c2cccc(C(=N)N)c2)c1` [Example 23], at human FXa, the IC50 is 1 to 10 µM.

For the origin of these results see US6348478B1, “Biphenylamidine derivatives” (Teijin Limited, priority 1997, dated 2002).
